Source: article PMC9928118, “Funneling modulatory peptide design with generative models: Discovery and characterization of disruptors of calcineurin protein-protein interactions” (PLOS Computational Biology, 2023)
Each block holds one sequence with its values, some of them ahead of it.

System: GST-tagged Cn
Test: PEPperPRINT peptide microarray binding assay with GST-tagged Cn
In short: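 Qualitative binding: peptides printed on a PEPperPRINT microarray were incubated overnight at 4 °C with 1 mg/ml GST-tagged Cn, then detected with Alexa-Fluor 647 anti-GST antibody. Log fluorescence was baseline-corrected, averaged over duplicate spots, Z-normalized and averaged across five repeats.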

[1] = GST-tagged Cn, max over the chip locations
[2] = GST-tagged Cn, mean over the chip locations
[3] = GST-tagged Cn, max over the spots on the chip (two locations)
[4] = GST-tagged Cn, mean over the spots on the chip (two locations)
[5] = max over the spots listed under Location on chip
[6] = mean over the spots listed under Location on chip
[7] = max over the chip locations listed for the peptide (two spots)
[8] = mean over the chip locations listed for the peptide (two spots)
[9] = GST-tagged Cn, max over the spots named in Location on chip
[10] = GST-tagged Cn, mean over the spots named in Location on chip
[11] = GST-tagged Cn, max over the chip spots listed under Location on chip
[12] = GST-tagged Cn, mean over the chip spots listed under Location on chip

Sequence: HVSSSPDIVITPTQHR [SeqRBMlowT_1399]
- Chip Fluorescence (max) [1]: 0.3374
- Chip Fluorescence (mean) [2]: -0.4706

Sequence: PSLFPDALGLGQFSLS [SeqCRZ1_Aureobasidium_pullulans]
- Chip Fluorescence (max) [3]: 1.272
- Chip Fluorescence (mean) [4]: 0.42

Sequence: TFWTNPQYRMVLDEDD [SeqRBM_7411]
- Chip Fluorescence (max) [7]: 5.3741
- Chip Fluorescence (mean) [8]: 1.404

Sequence: PSDPQPSIIVHACLED [SeqRBM_9284]
- Chip Fluorescence (max) [5]: 3.302
- Chip Fluorescence (mean) [6]: 0.8695

Sequence: VDIATNDLISELCNLC [Seqrandom_9952]
- Chip Fluorescence (max) [7]: 4.084
- Chip Fluorescence (mean) [8]: 0.2161

Sequence: RTPGTALLTLRGHKKQ [SeqRBMlowT_5808]
- Chip Fluorescence (max) [1]: 0.1527
- Chip Fluorescence (mean) [2]: -0.8232

Sequence: TFWTNPQYRVKVTEPD [SeqRBMlowT_7349]
- Chip Fluorescence (max) [3]: 1.274
- Chip Fluorescence (mean) [4]: 0.2599

Sequence: PSLYENALGIESFTLS [SeqRBMlowT_6913]
- Chip Fluorescence (max) [5]: 2.963
- Chip Fluorescence (mean) [6]: 0.4149

Sequence: AQSSQPPISTKYDARG [Seqshuffled_9482]
- Chip Fluorescence (max) [11]: 0.6167
- Chip Fluorescence (mean) [12]: -0.6535

Sequence: TFWTNPQFVITLEEVD [SeqRBMlowT_928]
- Chip Fluorescence (max) [5]: 3.091
- Chip Fluorescence (mean) [6]: 0.8732

Sequence: LCVTGRERIAEDWLRP [Seqrandom_9974]
- Chip Fluorescence (max) [3]: 1.2052
- Chip Fluorescence (mean) [4]: 0.7765

Sequence: RNPGQALLTLRGHKAQ [SeqRBMlowT_5824]
- Chip Fluorescence (max) [1]: -0.7814
- Chip Fluorescence (mean) [2]: -1.225

Sequence: ATDNQPGIVVHICADM [SeqRCN1_Daphnia_magna]
- Chip Fluorescence (max) [3]: 1.1168
- Chip Fluorescence (mean) [4]: 0.4617

Sequence: RNPGSPVLELEGHSAS [SeqRBMlowT_6392]
- Chip Fluorescence (max) [1]: -0.1475
- Chip Fluorescence (mean) [2]: -0.4043

Sequence: ASGLSPRIEITPSHEL [SeqNFATC2_Homo_sapiens]
- Chip Fluorescence (max) [3]: 0.9983
- Chip Fluorescence (mean) [4]: 0.1363

Sequence: RCISAYKLDSVMMDPS [Seqrandom_9957]
- Chip Fluorescence (max) [7]: 3.463
- Chip Fluorescence (mean) [8]: 0.1448

Sequence: KAYINPFMQFIDGGRR [SeqRBMlowT_549]
- Chip Fluorescence (max) [5]: 3.298
- Chip Fluorescence (mean) [6]: 1.4015

Sequence: LTWTSNDMKLHLSGVS [Seqshuffled_9827]
- Chip Fluorescence (max) [11]: 0.7935
- Chip Fluorescence (mean) [12]: -0.8344

Sequence: PGLYENALGMESFSIS [SeqCRZ1_Ajellomyces_capsulatus]
- Chip Fluorescence (max) [9]: 1.795
- Chip Fluorescence (mean) [10]: 0.6954

Sequence: QASKNSNMQRSFHVNA [Seqshuffled_9426]
- Chip Fluorescence (max) [11]: 0.8318
- Chip Fluorescence (mean) [12]: -0.05808

Sequence: GVQANPQFTIKAMMTN [SeqRBM_9281]
- Chip Fluorescence (max) [1]: -0.1422
- Chip Fluorescence (mean) [2]: -2.366

Sequence: RTPGTFLLTLRGHKKQ [SeqRBMlowT_7783]
- Chip Fluorescence (max) [5]: 2.997
- Chip Fluorescence (mean) [6]: 0.7866

Sequence: TFWTNPQFKITLTEPD [SeqRBMlowT_689]
- Chip Fluorescence (max) [3]: 1.036
- Chip Fluorescence (mean) [4]: -0.78

Sequence: QFKKSNLLGFMAASGD [Seqshuffled_9600]
- Chip Fluorescence (max) [3]: 0.9897
- Chip Fluorescence (mean) [4]: 0.1872

Sequence: KAYMCPFMQFIEGGRR [SeqSFB3_Pan_troglodytes]
- Chip Fluorescence (max) [11]: 0.9778
- Chip Fluorescence (mean) [12]: -1.603

Sequence: RVLECPSIRITSISPT [SeqNFATC4_Homo_sapiens]
- Chip Fluorescence (max) [1]: 0.1768
- Chip Fluorescence (mean) [2]: -0.8782

Sequence: KAYMCPFMQFIDGGRK [SeqRBMlowT_522]
- Chip Fluorescence (max) [5]: 2.8656
- Chip Fluorescence (mean) [6]: 1.3266

Sequence: ADEAVPEITITPAELP [SeqRBMlowT_1267]
- Chip Fluorescence (max) [5]: 2.637
- Chip Fluorescence (mean) [6]: 0.3175

Sequence: TFWTNPQFVVSLPEPD [SeqRBMlowT_3270]
- Chip Fluorescence (max) [11]: 0.9379
- Chip Fluorescence (mean) [12]: -0.001001

Sequence: SAGAGVGIVITVTEAE [SeqRBMlowT_164]
- Chip Fluorescence (max) [9]: 1.523
- Chip Fluorescence (mean) [10]: -0.8688

Sequence: LNLKIPTIAKADITAT [SeqRBM_4458]
- Chip Fluorescence (max) [9]: 1.846
- Chip Fluorescence (mean) [10]: -0.3422

Sequence: TFWTNPQFKVKLTDPD [SeqRBMlowT_2929]
- Chip Fluorescence (max) [1]: -0.3202
- Chip Fluorescence (mean) [2]: -2.672

Sequence: AYPGTYYGQDGSHKKQ [SeqRBM_820]
- Chip Fluorescence (max) [5]: 2.763
- Chip Fluorescence (mean) [6]: 0.3608

Sequence: PALESPRIEITSCLGL [SeqNFATC1_Homo_sapiens]
- Chip Fluorescence (max) [9]: 1.48
- Chip Fluorescence (mean) [10]: 0.3949

Sequence: ADEAGVQIVITVTELP [SeqRBMlowT_1446]
- Chip Fluorescence (max) [7]: 3.577
- Chip Fluorescence (mean) [8]: 1.112

Sequence: TFWTNPQFRLTLLSPD [SeqRBMlowT_9173]
- Chip Fluorescence (max) [3]: 1.238
- Chip Fluorescence (mean) [4]: 0.4236

Sequence: STSSLPTFSFSSPVPT [SeqRBMlowT_3904]
- Chip Fluorescence (max) [11]: 0.9816
- Chip Fluorescence (mean) [12]: -1.275

Sequence: VQLKIPQLRVSSVSKP [SeqLCORL_2_Sus_scrofa]
- Chip Fluorescence (max) [11]: 0.981
- Chip Fluorescence (mean) [12]: -0.5484

Other lines, results leading:

- Chip Fluorescence (max) [1]: 0.2778
- Chip Fluorescence (mean) [2]: -0.136
Sequence: LNLEIPEVRLNIISAL [SeqRBMlowT_8463]

- Chip Fluorescence (max) [1]: 0.2862
- Chip Fluorescence (mean) [2]: -1.095
Sequence: FAKHWPKLSDVSPVAH [SeqRBM_8299]

- Chip Fluorescence (max) [5]: 3.117
- Chip Fluorescence (mean) [6]: 1.082
Sequence: PAGAGVGIVITVTEAE [SeqRBMlowT_166]

- Chip Fluorescence (max) [9]: 1.5
- Chip Fluorescence (mean) [10]: -1.084
Sequence: STSSLPTFSFSSPLPS [SeqRBMlowT_3929]

- Chip Fluorescence (max) [3]: 1.1425
- Chip Fluorescence (mean) [4]: -0.2145
Sequence: HVSSSSDITITPTQHR [SeqRBMlowT_2715]

- Chip Fluorescence (max) [5]: 3.064
- Chip Fluorescence (mean) [6]: 0.978
Sequence: RAYINPFMTFTDGGRR [SeqRBMlowT_3400]

- Chip Fluorescence (max) [11]: 0.9606
- Chip Fluorescence (mean) [12]: -0.5019
Sequence: PKEDLPVITIDPASPQ [SeqNHE1_Pan_troglodytes]

- Chip Fluorescence (max) [7]: 4.111
- Chip Fluorescence (mean) [8]: 0.8256
Sequence: ATPGTFPRGDGAHKKQ [SeqRBMlowT_5886]

- Chip Fluorescence (max) [3]: 1.192
- Chip Fluorescence (mean) [4]: 0.531
Sequence: FNSWRQVPLWSPEFHT [SeqRBM_9832]

- Chip Fluorescence (max) [7]: 5.89
- Chip Fluorescence (mean) [8]: 1.37
Sequence: SFWTNPQFKITLEEPD [SeqRBMlowT_6820]

- Chip Fluorescence (max) [7]: 4.275
- Chip Fluorescence (mean) [8]: 0.4123
Sequence: SAGTGVGIVITVTEAE [SeqRBMlowT_1404]

- Chip Fluorescence (max) [11]: 0.8915
- Chip Fluorescence (mean) [12]: -0.5849
Sequence: HVSSSPDVTLKIPQHR [SeqRBMlowT_2187]

- Chip Fluorescence (max) [9]: 1.649
- Chip Fluorescence (mean) [10]: 0.4883
Sequence: TFWTNPQYRVTVTDPD [SeqRBMlowT_615]

- Chip Fluorescence (max) [7]: 4.01
- Chip Fluorescence (mean) [8]: 1.52
Sequence: GTETTPSVVVHVCEDD [SeqRBMlowT_112]

- Chip Fluorescence (max) [3]: 1.2153
- Chip Fluorescence (mean) [4]: 0.1411
Sequence: RNPGQALLTLRGHKKQ [SeqRBMlowT_5826]

- Chip Fluorescence (max) [11]: 0.6321
- Chip Fluorescence (mean) [12]: -0.2233
Sequence: RNPGQALLTLRGHSAS [SeqRBMlowT_5835]

- Chip Fluorescence (max) [5]: 2.678
- Chip Fluorescence (mean) [6]: 0.9155
Sequence: GSETQPGIVVHVCEDD [SeqRBMlowT_1216]

- Chip Fluorescence (max) [1]: 0.1109
- Chip Fluorescence (mean) [2]: -0.8373
Sequence: TFWSNPQFKITLEDPD [SeqRBMlowT_3183]

- Chip Fluorescence (max) [3]: 1.2431
- Chip Fluorescence (mean) [4]: -0.6745
Sequence: TFWTNPQYRVHVPDED [SeqRBMlowT_2927]

- Chip Fluorescence (max) [9]: 1.348
- Chip Fluorescence (mean) [10]: -0.7061
Sequence: TFWSNPQFKITLDEPD [SeqRBMlowT_5518]

- Chip Fluorescence (max) [3]: 1.242
- Chip Fluorescence (mean) [4]: -0.2303
Sequence: QKRYGETFPPVKTGSD [Seqshuffled_1489]

- Chip Fluorescence (max) [11]: 0.727
- Chip Fluorescence (mean) [12]: -0.3106
Sequence: RQPGQALLTLRGHSAS [SeqRBMlowT_5869]

- Chip Fluorescence (max) [7]: 4.3558
- Chip Fluorescence (mean) [8]: -0.1882
Sequence: ASEAAPTINIDFAPNP [SeqRBMlowT_1832]

- Chip Fluorescence (max) [1]: 0.05866
- Chip Fluorescence (mean) [2]: -0.8616
Sequence: RNPGTALLTLRGHKKQ [SeqRBMlowT_5859]

- Chip Fluorescence (max) [3]: 1.002
- Chip Fluorescence (mean) [4]: 0.1299
Sequence: GLCDSSKVNLVDAGPV [Seqshuffled_9731]

- Chip Fluorescence (max) [9]: 1.612
- Chip Fluorescence (mean) [10]: 0.1762
Sequence: HVEDTTEFALQRPSND [Seqshuffled_9422]

- Chip Fluorescence (max) [7]: 4.764
- Chip Fluorescence (mean) [8]: 1.127
Sequence: GHSHNPSITITFAEAE [SeqRBM_9189]

- Chip Fluorescence (max) [7]: 3.902
- Chip Fluorescence (mean) [8]: 0.5727
Sequence: ADEASPRIVITPPELP [SeqRBMlowT_1222]

- Chip Fluorescence (max) [11]: 0.5686
- Chip Fluorescence (mean) [12]: -0.7828
Sequence: TFWTNPQFKVKLEEPD [SeqRBMlowT_221]

- Chip Fluorescence (max) [1]: -0.3136
- Chip Fluorescence (mean) [2]: -1.152
Sequence: SSRIQSKIVVNEPKQI [SeqRBM_7418]

- Chip Fluorescence (max) [5]: 3.353
- Chip Fluorescence (mean) [6]: 0.761
Sequence: LMVSPPEITISPAELH [SeqRBM_5585]

- Chip Fluorescence (max) [3]: 1.254
- Chip Fluorescence (mean) [4]: 0.008632
Sequence: LHPTCDPFRCSTHQSH [Seqshuffled_9610]

- Chip Fluorescence (max) [5]: 2.677
- Chip Fluorescence (mean) [6]: 0.4774
Sequence: TFWTNPQYRLKIPDPD [SeqRBMlowT_280]

- Chip Fluorescence (max) [7]: 5.135
- Chip Fluorescence (mean) [8]: 0.4912
Sequence: RNPGQPLLELEGHSAP [SeqRBMlowT_7742]

- Chip Fluorescence (max) [7]: 5.256
- Chip Fluorescence (mean) [8]: 1.49
Sequence: FHYEDLSWHFQLFEGE [Seqrandom_9976]

- Chip Fluorescence (max) [5]: 2.925
- Chip Fluorescence (mean) [6]: 0.6756
Sequence: LKDQFPKVRLNIIDAP [SeqRBM_543]

- Chip Fluorescence (max) [1]: 0.03592
- Chip Fluorescence (mean) [2]: -0.8656
Sequence: FSGNQPAIVVHTCEDP [SeqRBM_2445]

- Chip Fluorescence (max) [5]: 3.1491
- Chip Fluorescence (mean) [6]: 0.8579
Sequence: TFWTNPQFKLKLLDPD [SeqRBMlowT_4269]

- Chip Fluorescence (max) [11]: 0.5354
- Chip Fluorescence (mean) [12]: -0.2316
Sequence: SPSIVANADLVVPYSE [SeqRBM_1237]
